According to patent US20180161310A1, “COMPOUNDS AND METHODS FOR THE TREATMENT OF NEUROLOGICAL DISORDERS” (Teleos Therapeutics, LLC, priority 2016, published 2018):
“And” between values parts separate entries of the source, which are not always exact repeats. Identical values can stand only once. Like-named read-outs stand apart in the source and are kept apart here.

Legend:
[1] = tested on: zebrafish larvae; type: in vivo; settings: 5 mM
Description: In an effort to determine how pharmacological inhibition of KCC2 affects zebrafish behaviors, 7 days post-fertilization (dpf) zebrafish larvae can be treated with two analogs of the selective KCC2 inhibitor, VU0463271 and VU0240551, and their behavioral responses in a battery of behavioral assays can be assessed. These behavioral assays can include a series of visual and acoustic stimuli presented to larval zebrafish in various contexts and combinations to elicit robust and reproducible patterns of activity. For example, behavioral assays can include two acoustic-stimulus-response (ASR1 and ASR2) assays, six visual-stimulus-response (VSR1-VSR6) assays, and three assays that combine acoustic and visual stimulus responses (AVSR1-AVSR3). Together, such a battery of behavioral assays use six stimuli, including red light (600 nm), blue light (420 nm), violet light (405 nm), green light (525 nm), low-intensity sound (60 dB) and high-intensity sound (70 dB). Behavioral responses of the larval zebrafish can be measured by a motion index (MI) that quantifies the motor activity of at least about 8 zebrafish larvae in each well of a 96-well plate.
Referring to FIGS. 1A-1B, zebrafish behavioral profiles can include a battery of individual behavioral assays labeled ASR1, AVSR1, ASR2, VSR1, VSR2, VSR3, VSR4, AVSR2, VSR5, AVSR3, and VSR6, as described herein. These behavioral assays can be combined to form a Motion Index (MI), which is a quantification of the motor activity of at least about 8 zebrafish larvae in each well of a 96-well plate. As shown in the representative images of FIGS. 1A-1B, zebrafish larvae were treated with DMSO (control), VU0463271 (FIG. 1A), or pentylentetrazol or PTZ (FIG. 1B).
Treatment with increasing doses of VU0463271 induced a unique and dose-dependent profile of behavioral responses, detectable at 2.5 μM and 5 μM. […] This relatively low concentration of VU0463271 elicited a reproducible behavioral profile with altered sensitivity of the fish larvae to specific combinations of stimuli. […] The increased MI in the AVSR1 and AVSR3 assays due to VU0463271 treatment reflects a seizure-like hyperexcitability in the larval fish.
Additionally, seizures have been induced in 7 dpf zebrafish larvae using pentylentetrazol (PTZ) treatment, and motor and electroencephalographic (EEG) responses were consistent with seizure phenotypes.

[2] = tested on: PTZ-induced behavior in zebrafish larvae; test: Suppression of PTZ-induced behavior in zebrafish larvae; type: in vivo; settings: pre-treatment with 6 concentrations, then 5 mM PTZ
Procedure: Differences between behavioral profiles of larval zebrafish treated with KCC2 inhibitors and larval zebrafish treated with PTZ were investigated by evaluating the ability of traditional anti-seizure drugs to reverse their effects. Five drugs in at least six concentrations (by allocating 12 wells per concentration) were tested. These drugs included a benzodiazepine anxiolytic (diazepam), two AEDs that increase GABA levels in the synapse (tiagabine and valproate), a sodium channel blocker (phenytoin) and a synthetic neurosteroid GABAA positive allosteric modulator (PAM, ganaxolone).

[3] = tested on: cultured rat hippocampal neurons; test: Gramicidin perforated patch clamp in cultured hippocampal neurons; type: cell-based
Procedure: Referring to FIG. 9, representative IV curves were generated (current-voltage curves) to characterise the intrinsic excitability of TT0023831 and TT0042607 in gramicidin perforated patch clamp studies, and to investigate whether the effects of the three hit compounds identified in the above-described suppressor screens translate to rodent models. The effects of these compounds were evaluated in cultured rat hippocampal neurons using the gramicidin perforated patch technique. The GABAA agonist, muscimol (1 μM), was used to measure EGABA values under basal conditions (FIG. 9). Perfusion of 30 μM TT0011235 potentiated GABAA-mediated currents, both muscimol-activated and endogenous post-synaptic potentials, and shifted the EGABA values (FIG. 9 and Appendix B). […] Treatment with 30 μM TT0042607 slowed the upstroke and repolarization, reduced the input resistant and thus, and reduced the number of open channels.

[4] = tested on: VU0240551-induced phenotype (KCC2 inhibition) in zebrafish larvae
[5] = target: Nav1.2 (Homo sapiens, UniProt Q99250)
[6] = target: Nav1.1 (Homo sapiens, UniProt P35498)
[7] = tested on: mouse maximal electroshock (MES) model; test: Mouse maximal electroshock (MES) model; type: in vivo; settings: animals protected from seizures / number tested
Procedure: (§1) TT0023831 and TT0042607 were tested in mammalian models of epilepsy. The two compounds were tested in the mouse 6 Hz 44 mA model and the mouse maximal electroshock (MES) model. A range of doses was examined, and results were reported as the number of animals protected from seizures out of the number tested (Table 5).

[8] = target: Nav1.6 (Homo sapiens, UniProt Q9UQD0)
[9] = tested on: mouse 6 Hz 44 mA model; test: Mouse 6 Hz 44 mA model of epilepsy; type: in vivo; settings: animals protected from seizures / number tested
Procedure: as §1

[10] = tested on: VU0463271-induced phenotype (KCC2 inhibition) in zebrafish larvae; test: animal or person; settings: for suppression score dose response compared with other compounds as suppressor of the hyperexcitability phenotype: zebrafish, FIG. 8 / FIG. 10
Procedure: To quantify the ability of the same drugs to reverse (or “rescue”) the phenotype caused by either 2.5 μM VU0463271 or 5 μM VU0240551, a rescue score between 0 (no rescue) and 1 (maximal theoretical rescue) was calculated (FIG. 2C). A rescue score incorporates and quantifies the degree of phenotypic reversal and the level of sedation in each concentration tested (see Materials and Methods below).
A diverse collection of 37,000 uncharacterized small molecules were used in a suppressor screen against either 2.5 μM VU0463271 (27,000 compounds) or 5 μM VU0240551 (10,000 compounds), along with 3,700 control wells treated with DMSO alone and 3,700 control wells treated with the KCC2 inhibitor. Each well of a 96-well plate containing at least about 8 zebrafish larvae was treated with a library compound or DMSO followed by treatment with the KCC2 inhibitor. Behavioral profiles pre- and post-treatment with the KCC2 inhibitor were evaluated using the behavioral assay battery described herein, and a detailed quantitative readout of about 15,000 time points was generated for each well. These behavioral profiles were used to calculate a screening score for each library compound, which incorporates and quantifies the rescue score and sedation index (see Materials and Methods).
In some cases, small molecules that alter the KCC2 inhibition phenotype may reverse the behavioral phenotype back to the normal, but could also elicit a new undesired phenotype, which is different from a normal behavior. To discriminate between these possibilities, vector algebra was used to compare each behavioral profile to the behavioral profile of DMSO-treated larvae and defined a value for the phenotypic distance from DMSO. The screen score of each compound was then plotted against its averaged phenotypic distance from DMSO (FIG. 3A) and MI (FIG. 3B) to filter out compounds that elicit a profile that is very different from the control one and compounds that reduce overall activity, respectively.
The reproducibility of the effects and the active concentration ranges of the 30 hits selected, as described above, were determined. Their rescue efficacies were retested in at least six concentrations and their rescue scores were also recalculated.
TT0023831 and six analogs were tested at a range of doses from 2.5-320 uM in a behavioral assay designed to assess the ability of compounds to suppress the effects of KCC2 inhibition. The graphs of FIG. 11 indicate the degree of suppression of the KCC2-inhibited phenotype, where a score of 1 represents complete restoration of KCC2-treated zebrafish to normal. […] Table 4 summarizes the estimated EC50 values and peak effect values for each compound.
A large number of fertilized zebrafish eggs (up to 20,000 embryos per day) were collected from group matings of wild type Ekkwill/Singapore zebrafish. Embryos were raised in hatching jars at 28° C. on a 14/10 hour light/dark cycle until 3 days post fertilization (dpf), then transferred to an incubator under the same conditions until 7 dpf. Groups of eight larvae (7 dpf) were distributed into the wells of a clear flat bottom square well 96-well plates filled with E3 medium (300 μl). Larvae were then incubated at 25° C. on the bench top for one-hour chemical treatment and subsequent experiments.
A library containing 37,000 uncharacterized small molecules was purchased from Life Chemicals and dissolved in DMSO at a stock concentration of 10 mM.

[11] = 10-point CRC, TT002381 to a maximum of 100 μM

Nav1.2, sequence (Q99250 whole entry): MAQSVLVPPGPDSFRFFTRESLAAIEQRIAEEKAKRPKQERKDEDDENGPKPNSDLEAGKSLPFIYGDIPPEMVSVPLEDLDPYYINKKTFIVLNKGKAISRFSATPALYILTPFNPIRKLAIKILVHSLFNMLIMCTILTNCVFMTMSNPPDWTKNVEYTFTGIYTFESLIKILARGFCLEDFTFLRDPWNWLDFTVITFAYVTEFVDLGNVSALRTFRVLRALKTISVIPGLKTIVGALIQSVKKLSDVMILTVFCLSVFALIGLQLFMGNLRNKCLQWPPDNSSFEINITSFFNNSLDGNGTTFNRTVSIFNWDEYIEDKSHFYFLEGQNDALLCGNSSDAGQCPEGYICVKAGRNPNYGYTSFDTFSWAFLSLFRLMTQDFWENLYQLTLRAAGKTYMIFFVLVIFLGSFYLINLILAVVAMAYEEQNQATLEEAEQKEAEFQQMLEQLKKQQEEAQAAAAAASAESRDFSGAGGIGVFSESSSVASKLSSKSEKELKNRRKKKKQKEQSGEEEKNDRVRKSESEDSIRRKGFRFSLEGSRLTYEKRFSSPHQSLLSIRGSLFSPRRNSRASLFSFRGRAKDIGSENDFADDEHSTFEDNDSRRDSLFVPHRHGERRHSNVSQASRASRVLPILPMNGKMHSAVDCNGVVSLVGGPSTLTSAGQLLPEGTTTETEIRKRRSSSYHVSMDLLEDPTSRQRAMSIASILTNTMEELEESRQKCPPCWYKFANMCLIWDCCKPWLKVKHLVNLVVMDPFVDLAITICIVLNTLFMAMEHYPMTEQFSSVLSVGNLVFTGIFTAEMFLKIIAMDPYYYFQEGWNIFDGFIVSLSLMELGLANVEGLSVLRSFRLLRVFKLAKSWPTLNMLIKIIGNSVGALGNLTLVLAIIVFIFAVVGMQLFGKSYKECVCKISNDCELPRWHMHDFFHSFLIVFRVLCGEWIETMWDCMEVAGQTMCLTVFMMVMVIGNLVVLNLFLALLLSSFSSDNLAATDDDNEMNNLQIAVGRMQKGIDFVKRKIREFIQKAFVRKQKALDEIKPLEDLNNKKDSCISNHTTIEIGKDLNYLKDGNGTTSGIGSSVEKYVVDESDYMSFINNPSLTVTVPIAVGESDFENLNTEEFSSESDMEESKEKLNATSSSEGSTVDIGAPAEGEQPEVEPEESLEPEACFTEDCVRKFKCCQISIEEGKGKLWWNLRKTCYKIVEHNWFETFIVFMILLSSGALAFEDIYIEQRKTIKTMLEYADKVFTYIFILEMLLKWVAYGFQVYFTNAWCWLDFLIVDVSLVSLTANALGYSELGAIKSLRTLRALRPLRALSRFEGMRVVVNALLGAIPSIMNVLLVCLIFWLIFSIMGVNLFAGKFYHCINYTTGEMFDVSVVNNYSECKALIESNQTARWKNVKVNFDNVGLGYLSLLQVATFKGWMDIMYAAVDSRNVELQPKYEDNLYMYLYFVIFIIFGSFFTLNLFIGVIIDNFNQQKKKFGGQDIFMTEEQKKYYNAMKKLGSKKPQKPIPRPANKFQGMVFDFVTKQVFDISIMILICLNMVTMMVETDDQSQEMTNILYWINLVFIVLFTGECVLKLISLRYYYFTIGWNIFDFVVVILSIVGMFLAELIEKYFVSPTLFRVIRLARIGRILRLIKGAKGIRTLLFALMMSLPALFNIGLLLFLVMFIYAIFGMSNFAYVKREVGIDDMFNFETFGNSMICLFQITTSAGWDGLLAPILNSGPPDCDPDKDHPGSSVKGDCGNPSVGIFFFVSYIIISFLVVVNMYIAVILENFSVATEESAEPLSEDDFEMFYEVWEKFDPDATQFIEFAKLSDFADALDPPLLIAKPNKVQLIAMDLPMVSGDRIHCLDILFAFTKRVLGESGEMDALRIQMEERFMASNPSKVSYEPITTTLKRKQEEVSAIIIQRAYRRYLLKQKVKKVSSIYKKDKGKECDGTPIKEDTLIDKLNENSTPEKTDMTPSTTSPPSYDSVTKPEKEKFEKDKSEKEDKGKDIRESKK
Nav1.6, sequence (Q9UQD0 whole entry): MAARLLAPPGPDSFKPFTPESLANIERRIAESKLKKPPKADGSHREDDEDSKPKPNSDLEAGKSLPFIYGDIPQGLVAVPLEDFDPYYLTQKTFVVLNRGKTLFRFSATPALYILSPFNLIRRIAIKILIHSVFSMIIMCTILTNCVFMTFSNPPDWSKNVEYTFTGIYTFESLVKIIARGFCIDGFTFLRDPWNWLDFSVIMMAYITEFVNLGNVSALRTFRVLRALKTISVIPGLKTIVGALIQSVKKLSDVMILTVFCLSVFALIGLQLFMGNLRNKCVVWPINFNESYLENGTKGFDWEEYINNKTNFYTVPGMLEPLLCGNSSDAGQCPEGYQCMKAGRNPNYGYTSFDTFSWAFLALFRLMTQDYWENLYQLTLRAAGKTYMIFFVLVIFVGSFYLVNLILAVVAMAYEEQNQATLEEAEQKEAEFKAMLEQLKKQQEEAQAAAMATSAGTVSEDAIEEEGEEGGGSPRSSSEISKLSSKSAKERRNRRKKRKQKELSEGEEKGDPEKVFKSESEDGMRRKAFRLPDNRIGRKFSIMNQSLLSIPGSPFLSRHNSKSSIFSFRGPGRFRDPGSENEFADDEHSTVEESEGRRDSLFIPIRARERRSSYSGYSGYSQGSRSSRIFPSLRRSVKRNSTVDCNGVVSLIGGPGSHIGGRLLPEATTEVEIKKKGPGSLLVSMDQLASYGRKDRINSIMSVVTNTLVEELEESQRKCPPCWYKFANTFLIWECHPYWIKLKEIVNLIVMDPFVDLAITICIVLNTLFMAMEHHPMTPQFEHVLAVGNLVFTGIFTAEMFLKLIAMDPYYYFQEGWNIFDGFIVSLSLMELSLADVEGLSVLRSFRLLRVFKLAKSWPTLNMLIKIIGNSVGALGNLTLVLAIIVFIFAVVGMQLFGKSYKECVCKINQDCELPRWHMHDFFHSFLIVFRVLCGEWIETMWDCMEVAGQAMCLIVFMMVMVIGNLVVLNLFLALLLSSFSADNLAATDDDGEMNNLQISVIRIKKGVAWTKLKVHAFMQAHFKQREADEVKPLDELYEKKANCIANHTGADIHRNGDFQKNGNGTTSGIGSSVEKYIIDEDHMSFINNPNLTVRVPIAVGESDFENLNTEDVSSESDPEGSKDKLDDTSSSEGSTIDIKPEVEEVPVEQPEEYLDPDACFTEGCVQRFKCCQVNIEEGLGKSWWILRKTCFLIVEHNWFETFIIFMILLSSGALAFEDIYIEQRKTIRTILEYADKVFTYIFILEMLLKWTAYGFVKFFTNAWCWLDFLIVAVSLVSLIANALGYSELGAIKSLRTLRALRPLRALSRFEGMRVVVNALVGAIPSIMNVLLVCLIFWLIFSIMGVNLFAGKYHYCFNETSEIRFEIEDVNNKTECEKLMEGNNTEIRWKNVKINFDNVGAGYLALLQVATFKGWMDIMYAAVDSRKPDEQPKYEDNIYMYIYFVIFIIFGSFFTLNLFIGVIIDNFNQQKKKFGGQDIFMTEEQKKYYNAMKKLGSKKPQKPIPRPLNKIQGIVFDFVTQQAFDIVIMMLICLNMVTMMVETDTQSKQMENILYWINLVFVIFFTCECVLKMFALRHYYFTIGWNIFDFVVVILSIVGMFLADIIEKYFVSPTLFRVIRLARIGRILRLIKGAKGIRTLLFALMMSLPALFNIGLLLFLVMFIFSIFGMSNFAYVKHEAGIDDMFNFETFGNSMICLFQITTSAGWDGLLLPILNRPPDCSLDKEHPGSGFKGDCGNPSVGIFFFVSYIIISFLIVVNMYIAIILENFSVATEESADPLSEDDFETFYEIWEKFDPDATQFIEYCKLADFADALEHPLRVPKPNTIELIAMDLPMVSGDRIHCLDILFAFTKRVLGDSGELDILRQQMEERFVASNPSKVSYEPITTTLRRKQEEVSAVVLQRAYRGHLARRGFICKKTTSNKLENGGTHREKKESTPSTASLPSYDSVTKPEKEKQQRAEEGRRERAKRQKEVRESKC

SMILES | suppression of PTZ-induced hyperactivity in response to the different stimuli [2] | inhibition of Nav1.2 [5, 11] | inhibition of Nav1.1 [6, 11] | Rescued (MES model) ([7]; 10 mg/kg) | Rescued (MES model) ([7]; 30 mg/kg) | Rescued (MES model) ([7]; 100 mg/kg) | inhibition of Nav1.6 [8, 11] | Rescued (6 Hz model) ([9]; 100 mg/kg) | effect on GABAA-mediated currents [3] | firing rates of the cultured neurons [3] | spike initiation [3] | input resistant ([3]; 30 μM) | number of open channels (open at rest) ([3]; 30 μM) | suppression score dose response compared with other compounds as suppressor of the hyperexcitability phenotype [10] | also measured
C1CCc2nnnn2CC1 [PTZ, pentylentetrazol] | – | – | – | – | – | – | – | – | – | – | – | – | – | – | activity and MI in response to multiple light and acoustic stimuli [1]: induced hyperactivity
Cc1ccc(-c2nc(N3CCOCC3)sc2C(=O)NCC2CCCO2)cc1 (stereo not drawn) [TT0011235] | attenuated | – | – | – | – | – | – | – | – | – | – | – | – | – | EGABA values ([3]; perfusion of 30 μM): shifted; GABAA-mediated currents (muscimol-activated and endogenous post-synaptic potentials) ([3]; perfusion of 30 μM): potentiated; effect on overall MI ([4]; at concentrations higher than 20 μM): inhibitory effect; concentration of most effective phenotypic reversal ([4]; tested at 2.5-80 μM): 20 µM; rescue of VU0240551-induced behaviors ([4]; tested at 2.5-80 μM): rescued
COc1cc(C)c(C(C)C)cc1S(=O)(=O)NCCN1CCOCC1 [TT0023831, 5-isopropyl-2-methoxy-4-methyl-N-(2-morpholinoethyl)benzene-sulfonamide] | did not | concentration-dependent inhibition | concentration-dependent inhibition | 0/4 | 2/4 | 2/4 | concentration-dependent inhibition | 3/8 | neither TT0023831 nor TT0042607 appeared to have an effect | reduced the firing rates | delayed spike initiation | without changing | without affecting | outperform both tiagabine and valproic acid | Rescued (6 Hz model) ([9]; 50 mg/kg): 0/8; Rescued (6 Hz model) ([9]; 200 mg/kg): 7/8; action potential threshold ([3]; 30 μM): raising; rheobase ([3]; 30 μM): increased; overall motor activity of the larvae ([10]; 80 μM, reduced the rescue score): reduced the overall motor activity; EC50 ([10]; Danio rerio, read-out: in vivo EC50): 5 µM; peak activity ([10]; concentration of peak effect, doses 2.5-320 uM, suppression of KCC2-inhibited phenotype in zebrafish): 20 µM; concentration of best phenotypic reversal ([10]; tested at 2.5-80 μM, high rescue scores): 20 µM and 40 µM
CCCOc1nn(CCC)cc1C(=O)Nc1ccc(C(F)(F)F)cc1 [TT0042607, 3-propoxy-1-propyl-N-(4-(trifluoromethyl)phen-yl)-1H-pyrazole-4-carboxamide] | attenuated | – | – | 0/4 | 0/4 | 2/4 | – | 1/4 | neither TT0023831 nor TT0042607 appeared to have an effect | reduced the firing rates | delayed spike initiation | reduced | reduced | outperform both tiagabine and valproic acid | Rescued (6 Hz model) ([9]; 10 mg/kg): 0/4; Rescued (6 Hz model) ([9]; 30 mg/kg): 0/4; upstroke and repolarization ([3]; 30 μM): slowed; effect on the overall MI ([10]; sub-micromolar or higher concentrations (tested 0.08-2.5 μM)): no effect; rescue of VU0463271-induced behaviors ([10]; tested at 0.08-2.5 μM, already at sub-micromolar concentrations): rescued
NC1=N[C@H](O)[C@H]2[C@H]3O[C@]4(O)O[C@@H]([C@@H](O)[C@@]2(N1)[C@@H]4O)[C@]3(O)CO [TTX, tetrodotoxin] | – | – | – | – | – | – | – | – | – | – | – | – | – | – | inhibition of Nav1.2 [5]: concentration-dependent inhibition; inhibition of Nav1.1 [6]: concentration-dependent inhibition; inhibition of Nav1.6 [8]: concentration-dependent inhibition
CCCCNc1ccc(C(=O)OCCN(C)C)cc1 [tetracaine] | – | concentration-dependent inhibition | concentration-dependent inhibition | – | – | – | concentration-dependent inhibition | – | – | – | – | – | – | – | –
